Measurements as given in patent US8883782B2, “Spiro-tetracyclic ring compounds as beta-secretase modulators and methods of use” (Amgen Inc., priority 2010, dated 2014).
Where two headings read alike, the source gives them in different places.

Columns and labels:
[1] = target: Beta Secretase enzyme (BACE) (Homo sapiens, UniProt P56817); assay: In vitro enzymatic BACE FRET (fluorescence resonance energy transfer) assay; assay type: biochemical; settings: average IC50, enzyme assay; read-out: BACE 1 FRET assay
Sequence of Beta Secretase enzyme (BACE) (P56817 46-501, species assumed): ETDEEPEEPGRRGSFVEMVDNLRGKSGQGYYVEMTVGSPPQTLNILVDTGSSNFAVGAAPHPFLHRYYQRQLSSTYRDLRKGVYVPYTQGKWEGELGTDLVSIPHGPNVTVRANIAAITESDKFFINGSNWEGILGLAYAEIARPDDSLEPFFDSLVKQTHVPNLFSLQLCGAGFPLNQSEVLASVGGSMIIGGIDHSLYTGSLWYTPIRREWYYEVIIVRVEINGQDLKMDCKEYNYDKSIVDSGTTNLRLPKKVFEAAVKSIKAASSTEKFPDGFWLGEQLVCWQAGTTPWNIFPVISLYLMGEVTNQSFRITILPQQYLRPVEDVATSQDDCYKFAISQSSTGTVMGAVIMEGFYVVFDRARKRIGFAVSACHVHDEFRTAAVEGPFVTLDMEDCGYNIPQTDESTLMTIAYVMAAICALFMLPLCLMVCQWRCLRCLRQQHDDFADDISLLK
Method in brief: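 Acetate buffer (0.05 M, pH 4.2), 10% DMSO final, 100 uM nonionic detergent genapol. Substrate addition (50 nM FRET peptide) initiates; one-hour incubation; Tris raises pH to neutrality before fluorescence measurement.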

[2] = test system: Aβ40 in conditioned medium of cells stably expressing Amyloid Precursor Protein (APP); assay: In vitro BACE cell-based assay (Aβ40 in conditioned medium, sandwich ELISA); settings: read-out: HEK cell assay
Method in brief: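 Secreted Aβ40 is captured with pAb40 and detected with biotinylated 6E10, read by europium time-resolved fluorescence. IC50 comes from percent inhibition versus concentration.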

[3] = Homo sapiens, HEK293, average IC50
[4] = Homo sapiens, HEK293, average IC50, HEK cells

Compound | IC50 [1] | IC50 [2, 3] | IC50 [2, 4] | IC50 ([2]; average IC50) | IC50 [2]
NC1=N[C@@]2(CO1)c1cc(-c3cccnc3N3CCC(F)(F)CC3)ccc1Oc1ncc(N3CCC(F)(F)CC3)cc12 [Example 477, (5S)-3-(4,4-difluoro-1-piperidinyl)-7-(2-(4,4-difluoro-1-piperidinyl)-3-pyridinyl)spiro[chromeno[2,3-b]pyridine-5,4′-[1,3]oxazol]-2′-amine] | 0.33 µM | – | 1.2 µM | – | –
(4S)-2′-(((1R)-2,2-difluorocyclopropyl)methoxy)-4′-fluoro-7′-(2-fluoro-3-pyridinyl)spiro[1,3-thiazole-4,9′-xanthen]-2-amine, (4S)-2′-(((1S)-2,2-difluorocyclopropyl)methoxy)-4′-fluoro-7′-(2-fluoro-3-pyridinyl)spiro[1,3-thiazole-4,9′-xanthen]-2-amine [Example 1080] | 0.0005 µM | – | – | 0.047 µM | –
NC1=N[C@@]2(CO1)c1cc(-c3cccnc3F)ccc1Oc1cnc(-c3ccnc(C(F)(F)F)c3)cc12 [Example 545, (5S)-7-(2-fluoro-3-pyridinyl)-3-(2-(trifluoromethyl)-4-pyridinyl)spiro[chromeno[2,3-c]pyridine-5,4′-[1,3]oxazol]-2′-amine] | 0.0056 µM | – | 0.406 µM | – | –
CN(c1cc(F)c2c(c1)[C@]1(COC(N)=N1)c1cc(-c3cccnc3F)ccc1O2)C1COC1 [Example 854, (4S)-4′-fluoro-7′-(2-fluoro-3-pyridinyl)-N~2~′-methyl-N~2~′-3-oxetanylspiro[1,3-oxazole-4,9′-xanthene]-2,2′-diamine] | 0.0044 µM | – | 0.017 µM | – | –
CC(C)(CF)COc1cc(F)c2c(c1)[C@]1(CSC(N)=N1)c1cc(-c3cccnc3F)ccc1O2 [Example 1081, (4S)-4′-fluoro-2′-(3-fluoro-2,2-dimethylpropoxy)-7′-(2-fluoro-3-pyridinyl)spiro[1,3-thiazole-4,9′-xanthen]-2-amine] | 0.214 µM | 0.899 µM | – | – | –
NC1=N[C@@]2(CO1)c1cc(OCc3ccccc3)ccc1Oc1ncc(C3=CCOCC3)cc12 [Example 967, (5S)-7-(benzyloxy)-3-(3,6-dihydro-2H-pyran-4-yl)spiro[chromeno[2,3-b]pyridine-5,4′-[1,3]oxazol]-2′-amine] | 0.0444 µM | – | 0.463 µM | – | –
COc1nc(F)cc2c1Oc1ccc(-c3cccnc3)cc1[C@]21COC(N)=N1 [Example 847, (5R)-3-fluoro-1-methoxy-7-(3-pyridinyl)spiro[chromeno[2,3-c]pyridine-5,4′-[1,3]oxazol]-2′-amine, (5S)-3-fluoro-1-methoxy-7-(3-pyridinyl)spiro[chromeno[2,3-c]pyridine-5,4′-[1,3]oxazol]-2′-amine] | 0.0004 µM | – | – | – | 0.01 µM
CC1(COc2cc3c(cc2F)Oc2ccc(-c4cncc(C#N)c4)cc2[C@@]32COC(N)=N2)COC1 [Example 330, 5-((4S)-2-amino-6′-fluoro-7′-((3-methyl-3-oxetanyl)methoxy)spiro[1,3-oxazole-4,9′-xanthen]-2′-yl)-3-pyridinecarbonitrile] | 0.0088 µM | 0.0336 µM | – | – | –
CC1(C#Cc2cc3c(nc2F)Oc2ccc(-c4ccc(F)nc4)cc2[C@]32COC(N)=N2)COC1 [Example 905, (5R)-2-fluoro-7-(6-fluoro-3-pyridinyl)-3-((3-methyl-3-oxetanyl)ethynyl)spiro[chromeno[2,3-b]pyridine-5,4′-[1,3]oxazol]-2′-amine] | 0.126 µM | – | 3.11 µM | – | –
CC(C)(C)COc1ccc2c(c1)[C@]1(COC(N)=N1)c1cc(C3=CCCOC3)ccc1O2 [Example 910, (4S)-2′-(5,6-dihydro-2H-pyran-3-yl)-7′-(2,2-dimethylpropoxy)spiro[1,3-oxazole-4,9′-xanthen]-2-amine] | 0.0223 µM | – | 1.77 µM | – | –
NC1=N[C@@]2(CO1)c1cc(-c3cccnc3F)ccc1Oc1cc(OC(F)(F)F)c(Br)cc12 [Example 989, (4S)-2′-bromo-7′-(2-fluoro-3-pyridinyl)-3′-(trifluoromethoxy)spiro[1,3-oxazole-4,9′-xanthen]-2-amine] | 2.38 µM | ≥ 10 µM | – | – | –
CC1(C)C[C@H](c2cc3c(cn2)Oc2ccc(-c4cccnc4)cc2[C@@]32COC(N)=N2)CCO1 [Example 368, (5S)-3-((4R)-2,2-dimethyltetrahydro-2H-pyran-4-yl)-7-(3-pyridinyl)spiro[chromeno[2,3-c]pyridine-5,4′-[1,3]oxazol]-2′-amine] | 0.0104 µM | 0.0379 µM | – | – | –
CC(C)(C)COc1ccc2c(c1)[C@@]1(COC(N)=N1)c1cc(-c3cncnc3)c(F)cc1O2 [Example 511, (4R)-7′-(2,2-dimethylpropoxy)-3′-fluoro-2′-(5-pyrimidinyl)spiro[1,3-oxazole-4,9′-xanthen]-2-amine] | 0.0993 µM | – | 0.492 µM | – | –
COc1cc(F)c2c(c1)[C@]1(CSC(N)=N1)c1cc(Br)ccc1O2 [Example 606, (4S)-7′-bromo-4′-fluoro-2′-methoxyspiro[1,3-thiazole-4,9′-xanthen]-2-amine] | 0.813 µM | – | 0.279 µM | – | –
NC1=N[C@]2(CO1)c1cc(-c3cccc(Cl)c3)ccc1Oc1cnc(C3=CCOCC3)cc12 [Example 234, (5R)-7-(3-chlorophenyl)-3-(3,6-dihydro-2H-pyran-4-yl)spiro[chromeno[2,3-c]pyridine-5,4′-[1,3]oxazol]-2′-amine] | 0.49 µM | 4.28 µM | – | – | –

Further lines, with some results ahead:

IC50 [1] | IC50 [2, 3] | IC50 [2, 4] | Compound | IC50 ([2]; average IC50) | IC50 [2]
0.0043 µM | 0.015 µM | – | COc1nc(C2=CCOCC2)cc2c1Oc1ccc(-c3cccnc3)cc1[C@@]21COC(N)=N1 [Example 840, (5S)-3-(3,6-dihydro-2H-pyran-4-yl)-1-methoxy-7-(3-pyridinyl)spiro[chromeno[2,3-c]pyridine-5,4′-[1,3]oxazol]-2′-amine] | – | –
0.0003 µM | 0.002 µM | – | CC#Cc1cncc(-c2ccc3c(c2)[C@@]2(COC(N)=N2)c2cc(C4=CCOCC4)nc(F)c2O3)c1 [Example 760, (5S)-3-(3,6-dihydro-2H-pyran-4-yl)-1-fluoro-7-(5-(1-propyn-1-yl)-3-pyridinyl)spiro[chromeno[2,3-c]pyridine-5,4′-[1,3]oxazol]-2′-amine] | – | –
0.0022 µM | 0.0135 µM | – | NC1=N[C@@]2(CO1)c1cc(-c3cncc(F)c3)ccc1Oc1c(F)cc([C@@H]3CCCOC3)cc12 [Example 284, (4S)-4′-fluoro-7′-(5-fluoro-3-pyridinyl)-2′-((3S)-tetrahydro-2H-pyran-3-yl)spiro[1,3-oxazole-4,9′-xanthen]-2-amine] | – | –
0.0024 µM | – | 0.008 µM | N#Cc1cccc(-c2ccc3c(c2)[C@@]2(COC(N)=N2)c2cc(N4CCOCC4)ncc2O3)c1 [Example 895, 3-((5S)-2′-amino-3-(4-morpholinyl)spiro[chromeno[2,3-c]pyridine-5,4′-[1,3]oxazol]-7-yl)benzonitrile] | – | –
0.0008 µM | 0.0051 µM | – | CC(C)(O)C#Cc1cc(F)c2c(c1)[C@]1(COC(N)=N1)c1cc(-c3cccnc3F)ccc1O2 [Example 199, 4-((4S)-2-amino-4′-fluoro-7′-(2-fluoro-3-pyridinyl)spiro[1,3-oxazole-4,9′-xanthen]-2′-yl)-2-methyl-3-butyn-2-ol] | – | –
0.0003 µM | 0.004 µM | – | C[C@H]1COCCN1c1cc(F)c2c(c1)[C@]1(CSC(N)=N1)c1cc(-c3cccnc3F)ccc1O2 [Example 1082, (4S)-4′-fluoro-7′-(2-fluoro-3-pyridinyl)-2′-((3S)-3-methyl-4-morpholinyl)spiro[1,3-thiazole-4,9′-xanthen]-2-amine] | – | –
0.0005 µM | 0.0041 µM | – | NC1=N[C@@]2(CO1)c1cc(-c3cccnc3F)ccc1Oc1c(F)cc(N3CCC(F)(F)C3)cc12 [Example 271, (4S)-2′-(3,3-difluoro-1-pyrrolidinyl)-4′-fluoro-7′-(2-fluoro-3-pyridinyl)spiro[1,3-oxazole-4,9′-xanthen]-2-amine] | – | –
0.0005 µM | – | 0.0103 µM | NC1=N[C@@]2(CO1)c1cc(-c3cccnc3F)ccc1Oc1c(F)cc(-c3ccnc(F)c3)cc12 [Example 451, (4S)-4′-fluoro-7′-(2-fluoro-3-pyridinyl)-2′-(2-fluoro-4-pyridinyl)spiro[1,3-oxazole-4,9′-xanthen]-2-amine] | – | –
0.0016 µM | 0.013 µM | – | CC1(C#Cc2cnc3c(c2)[C@]2(CSC(N)=N2)c2cc(-c4ccc(F)c(C#N)c4)ccc2O3)COC1 [Example 785, 5-((5S)-2′-amino-3-((3-methyl-3-oxetanyl)ethynyl)spiro[chromeno[2,3-b]pyridine-5,4′-[1,3]thiazol]-7-yl)-2-fluorobenzonitrile] | – | –
0.0006 µM | 0.006 µM | – | N#Cc1cc(-c2ccc3c(c2)[C@@]2(CSC(N)=N2)c2cc(C4=CCOCC4)cnc2O3)ccc1F [Example 764, 5-((5S)-2′-amino-3-(3,6-dihydro-2H-pyran-4-yl)spiro[chromeno[2,3-b]pyridine-5,4′-[1,3]thiazol]-7-yl)-2-fluorobenzonitrile] | – | –
0.0004 µM | 0.0018 µM | – | CC1(/C=C/c2cnc3c(c2)[C@]2(COC(N)=N2)c2cc(-c4cc(Cl)ccc4F)ccc2O3)COC1 [Example 177, (5S)-7-(5-chloro-2-fluorophenyl)-3-((E)-2-(3-methyl-3-oxetanyl)ethenyl)spiro[chromeno[2,3-b]pyridine-5,4′-[1,3]oxazol]-2′-amine] | – | –
0.0003 µM | 0.003 µM | – | CC#Cc1cncc(-c2ccc3c(c2)[C@@]2(CSC(N)=N2)c2cc(-c4ccnc(F)c4)cnc2O3)c1 [Example 781, (5S)-3-(2-fluoro-4-pyridinyl)-7-(5-(1-propyn-1-yl)-3-pyridinyl)spiro[chromeno[2,3-b]pyridine-5,4′-[1,3]thiazol]-2′-amine] | – | –
0.0015 µM | – | 0.0066 µM | NC1=N[C@@]2(CO1)c1cc(-c3cncc(F)c3)ccc1Oc1ncc(C3=CCOCC3)cc12 [Example 457, (5S)-3-(3,6-dihydro-2H-pyran-4-yl)-7-(5-fluoro-3-pyridinyl)spiro[chromeno[2,3-b]pyridine-5,4′-[1,3]oxazol]-2′-amine] | – | –
